US8039493B2, “Biaryl sulfonamide derivatives” (Hoffmann-La Roche Inc., priority 2008, dated 2011)

Columns and labels:
human LXR alpha = target: T1, human LXR alpha (Homo sapiens, UniProt Q13133); test: Radioligand binding assay (scintillation proximity), LXRα-LBD; details: LXRα-LBD on SPA beads, read-out: LXRalpha Binding IC50
T1 construct: human LXR alpha (aa 164 to 447); made in house; host or cells: E. coli BL21 (pLysS)
T1 sequence (Q13133 164-447): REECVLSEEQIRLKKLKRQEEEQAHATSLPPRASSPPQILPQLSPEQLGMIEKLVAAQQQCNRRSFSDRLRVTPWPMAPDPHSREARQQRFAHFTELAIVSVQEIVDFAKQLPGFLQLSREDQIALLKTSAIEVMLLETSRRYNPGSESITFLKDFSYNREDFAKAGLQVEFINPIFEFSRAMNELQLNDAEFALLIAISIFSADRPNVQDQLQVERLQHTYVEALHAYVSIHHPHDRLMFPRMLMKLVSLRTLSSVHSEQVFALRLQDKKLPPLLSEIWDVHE
Protocol: (§1) The following tests were carried out in order to determine the activity of the compounds of the present invention. […] Mammalian expression vectors were constructed to express full-length human LXR alpha and LXR beta. […] To accomplish this, the portions of the sequences encoding the LBDs were amplified from the full-length clones by PCR and then subcloned into the plasmid vectors.
(§2) Induction, expression, and purification of LBD proteins were performed in E. coli strain BL21 (pLysS) cells by standard methods (Ref: Current Protocols in Molecular Biology, Wiley Press, edited by Ausubel et al).
(§3) Radioligand Binding Assay
(§4) LXR alpha and LXR beta receptor binding were assayed in buffer consisting of 50 mM HEPES, pH 7.4, 10 mM NaCl, 5 mM MgCl2. For each 96-well reaction, 500 ng of LXRα-LBD or 700 ng of LXR beta-LBD proteins were bound to 80 μg or 40 μg SPA beads respectively, in a final volume of 50 μl by shaking. The resulting slurry was incubated for 1 h at RT and centrifuged for 2 min at 1300×g. The supernatant containing unbound protein was removed, and the semi-dry pellet containing the receptor-coated beads was re-suspended in 50 μl of buffer. Radioligand (eg. 100,000 dpm of (N-(2,2,2-trifluoroethyl)-N-[4-(2,2,2-trifluoro-1-hydroxy-1-trifluoromethylethyl)-phenyl]-benzenesulfonamide)) was added, and the reaction incubated at RT for 1 h in the presence of test compounds, and then scintillation proximity counting was performed. All binding assays were performed in 96-well plates and the amount of bound ligand was measured on a Packard TopCount using OptiPlates (Packard). Dose response curves were measured within a range of concentration from 10^−10 M to 10^−4 M.

human LXR beta = target: T2, human LXR beta (Homo sapiens, UniProt P55055); test: Radioligand binding assay (scintillation proximity), LXR beta-LBD; details: LXR beta-LBD on SPA beads, read-out: LXRbeta Binding IC50
T2 construct: human LXR beta (aa 155 to 460); made in house; host or cells: E. coli BL21 (pLysS)
T2 sequence (P55055 155-460): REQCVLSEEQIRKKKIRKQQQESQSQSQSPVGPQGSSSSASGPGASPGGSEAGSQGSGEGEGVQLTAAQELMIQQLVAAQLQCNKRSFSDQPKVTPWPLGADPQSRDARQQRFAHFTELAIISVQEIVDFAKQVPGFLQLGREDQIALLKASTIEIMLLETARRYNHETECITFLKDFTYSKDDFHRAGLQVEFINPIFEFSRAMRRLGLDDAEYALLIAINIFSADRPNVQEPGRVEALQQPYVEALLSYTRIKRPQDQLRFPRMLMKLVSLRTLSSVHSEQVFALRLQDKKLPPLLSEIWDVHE
Protocol: as §1, §2, §3, §4

Row | Compound | IC50 (human LXR alpha) [nM] | IC50 (human LXR beta) [nM]
1 | CS(=O)(=O)c1cccc(-c2nnc(CN(Cc3ccccc3)S(=O)(=O)c3ccccc3C(F)(F)F)o2)c1 [Example 3, N-Benzyl-N-[5-(3-methanesulfonyl-phenyl)-[1,3,4]oxadiazol-2-ylmethyl]-2-trifluoromethyl-benzenesulfonamide] | 5720 | 5410
2 | CS(=O)(=O)c1cccc(-c2ccc(CN(Cc3ccccc3)S(=O)(=O)c3cccc(Cl)c3)s2)c1 [Example 7, N-Benzyl-3-chloro-N-[5-(3-methanesulfonyl-phenyl)-thiophen-2-ylmethyl]-benzenesulfonamide] | 4280 | 1510
3 | CS(=O)(=O)c1cccc(-c2ncc(CN(Cc3ccccc3)S(=O)(=O)c3ccccc3Cl)s2)c1 [Example 10, N-Benzyl-2-chloro-N-[2-(3-methanesulfonyl-phenyl)-thiazol-5-ylmethyl]-benzenesulfonamide] | 2700 | 56.5
4 | CC(C)CN(Cc1cnc(-c2cccc(S(C)(=O)=O)c2)s1)S(=O)(=O)c1ccccc1Cl [Example 11, 2-Chloro-N-isobutyl-N-[2-(3-methanesulfonyl-phenyl)-thiazol-5-ylmethyl]-benzenesulfonamide] | 8780 | 170
5 | CS(=O)(=O)c1cccc(-c2ncc(CN(C(=O)c3ccccc3)S(=O)(=O)c3ccccc3Cl)s2)c1 [Example 12, N-Benzoyl-2-chloro-N-[2-(3-methanesulfonyl-phenyl)-thiazol-5-ylmethyl]-benzenesulfonamide] | 27300 | 120
6 | CC(C)CN(Cc1ccc(-c2cccc(S(C)(=O)=O)c2)o1)S(=O)(=O)c1ccccc1Cl [Example 13, 2-Chloro-N-isobutyl-N-[5-(3-methanesulfonyl-phenyl)-furan-2-ylmethyl]-benzenesulfonamide] | 3490 | 40.5
7 | CC(C)CN(Cc1ccc(-c2cccc(S(C)(=O)=O)c2)s1)S(C)(=O)=O [Example 15, N-Isobutyl-N-[5-(3-methanesulfonyl-phenyl)-thiophen-2-ylmethyl]-methanesulfonamide] | 48700 | 7060
8 | CCS(=O)(=O)N(Cc1ccc(-c2cccc(S(C)(=O)=O)c2)s1)CC(C)C [Example 16, Ethanesulfonic acid isobutyl-[5-(3-methanesulfonyl-phenyl)-thiophen-2-ylmethyl]-amide] | 25000 | 2860
9 | CC(C)CN(Cc1ccc(-c2cccc(S(C)(=O)=O)c2)s1)S(=O)(=O)C(F)(F)F [Example 20, Trifluoro-N-isobutyl-N-[5-(3-methanesulfonyl-phenyl)-thiophen-2-ylmethyl]-methanesulfonamide] | 3750 | 270
10 | CCCCS(=O)(=O)N(Cc1ccc(-c2cccc(S(C)(=O)=O)c2)s1)CC(C)C [Example 25, Butane-1-sulfonic acid isobutyl-[5-(3-methanesulfonyl-phenyl)-thiophen-2-ylmethyl]-amide] | 2750 | 80
11 | CC(C)CN(Cc1ccc(-c2cccc(S(C)(=O)=O)c2)s1)S(=O)(=O)c1ccccc1C#N [Example 26, 2-Cyano-N-isobutyl-N-[5-(3-methanesulfonyl-phenyl)-thiophen-2-ylmethyl]-benzenesulfonamide] | 15900 | 98

Further lines, results first:

Row | IC50 (human LXR alpha) [nM] | IC50 (human LXR beta) [nM] | Compound
12 | 205 | 165 | CS(=O)(=O)c1cccc(-c2ccc(CN(Cc3ccccc3)S(=O)(=O)c3ccccc3C(F)(F)F)s2)c1 [Example 1, N-Benzyl-N-[5-(3-methanesulfonyl-phenyl)-thiophen-2-ylmethyl]-2-trifluoromethyl-benzenesulfonamide]
13 | 170 | 126 | CS(=O)(=O)Nc1cccc(-c2ccc(CN(Cc3ccccc3)S(=O)(=O)c3ccccc3C(F)(F)F)s2)c1 [Example 2, N-Benzyl-N-[5-(3-methanesulfonylamino-phenyl)-thiophen-2-ylmethyl]-2-trifluoromethyl-benzenesulfonamide]
14 | 685 | 123 | CS(=O)(=O)c1cccc(-c2ccc(CN(Cc3ccccc3)S(=O)(=O)c3ccccc3Cl)s2)c1 [Example 4, N-Benzyl-2-chloro-N-[5-(3-methanesulfonyl-phenyl)-thiophen-2-ylmethyl]-benzenesulfonamide]
15 | 1170 | 102 | CC(C)CN(Cc1ccc(-c2cccc(S(C)(=O)=O)c2)s1)S(=O)(=O)c1ccccc1Cl [Example 5, 2-Chloro-N-isobutyl-N-[5-(3-methanesulfonyl-phenyl)-thiophen-2-ylmethyl]-benzenesulfonamide]
16 | 1570 | 46 | CS(=O)(=O)c1cccc(-c2ccc(CN(C(=O)c3ccccc3)S(=O)(=O)c3ccccc3Cl)s2)c1 [Example 6, N-Benzoyl-2-chloro-N-[5-(3-methanesulfonyl-phenyl)-thiophen-2-ylmethyl]-benzenesulfonamide]
17 | 925 | 560 | CC(C)CN(Cc1ccc(-c2cccc(S(C)(=O)=O)c2)s1)S(=O)(=O)c1cccc(Cl)c1 [Example 8, 3-Chloro-N-isobutyl-N-[5-(3-methanesulfonyl-phenyl)-thiophen-2-ylmethyl]-benzenesulfonamide]
18 | 2140 | 980 | CS(=O)(=O)c1cccc(-c2ccc(CN(C(=O)c3ccccc3)S(=O)(=O)c3cccc(Cl)c3)s2)c1 [Example 9, N-Benzoyl-3-chloro-N-[5-(3-methanesulfonyl-phenyl)-thiophen-2-ylmethyl]-benzenesulfonamide]
19 | 68 | 2.2 | CC(C)CN(Cc1cc(-c2cccc(S(C)(=O)=O)c2)cs1)S(=O)(=O)c1ccccc1Cl [Example 14, 2-Chloro-N-isobutyl-N-[4-(3-methanesulfonyl-phenyl)-thiophen-2-ylmethyl]-benzenesulfonamide]
20 | 2210 | 28 | CC(C)CN(Cc1ccc(-c2cccc(S(C)(=O)=O)c2)s1)S(=O)(=O)c1ccccc1F [Example 17, 2-Fluoro-N-isobutyl-N-[5-(3-methanesulfonyl-phenyl)-thiophen-2-ylmethyl]-benzenesulfonamide]
21 | 1440 | 82 | CC(C)CN(Cc1ccc(-c2cccc(S(C)(=O)=O)c2)s1)S(=O)(=O)c1c(Cl)cccc1Cl [Example 18, 2,6-Dichloro-N-isobutyl-N-[5-(3-methanesulfonyl-phenyl)-thiophen-2-ylmethyl]-benzenesulfonamide]
22 | 2630 | 59 | COC(=O)c1ccccc1S(=O)(=O)N(Cc1ccc(-c2cccc(S(C)(=O)=O)c2)s1)CC(C)C [Example 19, 2-{Isobutyl-[5-(3-methanesulfonyl-phenyl)-thiophen-2-ylmethyl]-sulfamoyl}-benzoic acid methyl ester]
23 | 605 | 140 | CC(C)CN(Cc1ccc(-c2cccc(S(C)(=O)=O)c2)s1)S(=O)(=O)c1cccs1 [Example 21, Thiophene-2-sulfonic acid isobutyl-[5-(3-methanesulfonyl-phenyl)-thiophen-2-ylmethyl]-amide]
24 | 1380 | 22.5 | CC(C)CN(Cc1ccc(-c2cccc(S(C)(=O)=O)c2)s1)S(=O)(=O)c1cccc(Cl)c1F [Example 22, 3-Chloro-2-fluoro-N-isobutyl-N-[5-(3-methanesulfonyl-phenyl)-thiophen-2-ylmethyl]-benzenesulfonamide]
25 | 1520 | 19 | COc1ccc(Cl)cc1S(=O)(=O)N(Cc1ccc(-c2cccc(S(C)(=O)=O)c2)s1)CC(C)C [Example 23, 5-Chloro-N-isobutyl-N-[5-(3-methanesulfonyl-phenyl)-thiophen-2-ylmethyl]-2-methoxy-benzenesulfonamide]
26 | 165 | 28.5 | Cc1ccc(F)cc1S(=O)(=O)N(Cc1ccc(-c2cccc(S(C)(=O)=O)c2)s1)CC(C)C [Example 24, 5-Fluoro-N-isobutyl-N-[5-(3-methanesulfonyl-phenyl)-thiophen-2-ylmethyl]-2-methyl-benzenesulfonamide]
